Values after ≈ are worked out from the molar mass of the structure shown. Read-outs that look alike come from different tables or passages of the source.
How the values were obtained:
[1] = system: mouse leukemia L1210 cells; test: Inhibition of L1210 cell growth; assay type: cell-based
Procedure: Preliminary biological data for inhibiting cell growth of murine L1210 leukemic cells and human acute promyelocytic leukemia cells (HL-60) during 72 h of exposure to the compounds are given in Table IV. The potencies for inhibiting [^3 H]TdR incorporation into DNA in HL-60 cells during the initial 30-min period are also given in Table IV. It is interesting to note that 1,8-di-O-methyl derivatives are uniformly devoid of activity against L1210 leukemic cells. […] The B/A ratios allow an indirect estimation of whether or not cytotoxicities exerted by these analogues are primarily due to initial inhibition of DNA synthesis. […] Whether these analogues, like m-AMSA, ellipticine, or anthracyclines, act by inhibiting DNA topoisomerase II remains to be explored. […] Our preliminary experiments indicate that the compounds arrest cells in the S and/or G2 phases of the cell cycle (unpublished results).

[2] = system: human leukemia HL-60 cells; test: HL-60 cell growth inhibition (72 h); assay type: cell-based; conditions: HL-60, 72 h, read-out: ID50, M [HL-60 cell growth (72 h)] (A)
Procedure: For cell growth inhibition studies, HL-60 cells […]) were grown in RPMI 1640 media at 37° C. in humidified 5% CO2 for 72 h. Viable cells were counted with the trypan blue exclusion method. The fractional inhibitions at four or five concentrations of compounds (in 0.2% DMSO) were analyzed with a median-effect plot (Chou, T.-C., et al., Adv. Enzyme Regul. 22:27 (1984)) by using a computer program. (Chou, J.; Chou, T.-C. Dose-Effect Analyses with Microcomputer. Quantitation of ID50, LD50, Synergism, Antagonism, Low-dose Risk, Receptor-Binding and Enzyme Kinetics; IBM-PC Series, Elsevier-Biosoft, Elsevier Scientific: Cambridge, U.K., (1986)). The median-effect concentration (ID50) was automatically determined for the x intercept of the median-effect plot. Cell growth in the absence of a compound and in the presence of DMSO was used as a control. DMSO (0.2%) alone inhibited cell growth 3.8±1.2% during the 72-h incubation period.

[3] = system: [^3 H]TdR incorporation into DNA in HL-60 cells; test: Inhibition of [3H]TdR incorporation into DNA in HL-60 cells (initial 30 min); assay type: cell-based, human; conditions: for IC50: HL-60, initial 30 min exposure, read-out: ID50, M (HL-60 TdR into DNA (B)); for B/A: ratio of ID50 for TdR incorporation (B) to ID50 for cell growth (A), HL-60
Procedure: For precursor incorporation studies, each compound at four to six concentrations (0.2% DMSO) was preincubated with HL-60 cells (2.5×10^6 /Ml) for 15 min prior to the addition of [^3 H-methyl]TdR (1 μCi, 0.15 nmol/mL) and was incubated for 30 min. […] The incorporation of radioactivity in DNA in the absence of an analogue in the presence of DMSO was used as a control.

[4] = Mus musculus, Table IV, L1210, 72 h exposure, read-out: ID50, M (L1210 cell growth)
[5] = Mus musculus, L1210, Table I, read-out: ID50 (the source's name)
[6] = Mus musculus, L1210, Table I, read-out: ID50 (μg/mL)
[7] = Table IV, L1210, 72 h exposure, read-out: ID50, M (L1210 cell growth)
[8] = Table I, read-out: ID50 (the source's name)

IC50 [1, 4]	IC50 ([2]; Homo sapiens, 0.2% DMSO)	IC50 ([3]; Homo sapiens, 0.5 h)	IC50 [1, 5]	IC50 [1, 6]	Compound	B/A [3]	further results
41 µM	6 µM	58 µM			COc1cc(OC)c2c(c1)C(=O)c1cc(C(Br)Br)cc(OC)c1C2=O [IVb, 6-(Dibromomethyl)-1,3,8-trimethoxy-9,10-anthraquinone]	9.7	
0.67 µM	3.2 µM	16 µM			O=C1c2cccc(O)c2C(=O)c2c(O)cc(CNCCCO)cc21 [XIa-11]	5.0	
1.2 µM	3.4 µM	35 µM	1.16 µM	0.51 µg/mL	CCN(CC)Cc1cc(O)c2c(c1)C(=O)c1cc(OC)cc(O)c1C2=O [XIb-1, 3-(N,N-diethylamino)methyl-1,8-dihydroxy-6-methoxy-9,10-anthraquinone]	10.3	
7.4 µM	4.8 µM	43 µM			O=C1c2cccc(O)c2C(=O)c2c(O)cc(Cn3ccnc3)cc21 [XIa-15]	9.0	
1.6 µM	2.1 µM	10 µM			O=C1c2cccc(O)c2C(=O)c2c(O)cc(CN3CCCC3)cc21 [XIa-13]	4.8	
					6-(Dibromomethyl)-1-(and 8)-hydroxy-3,8(and) 1,3)-dimethoxy-9,10-anthraquinone [VIIb]	237	IC50 [1, 7]: 0.001 µM; IC50 ([2]; 0.2% DMSO): 0.097 µM; IC50 [3]: 23 µM
28 µM	10 µM	19 µM			COc1cccc2c1C(=O)c1c(OC)cc(C)cc1C2=O [IIa, 1,8-Dimethoxy-3-methyl-9,10-anthraquinone]		
130 µM	30 µM	19 µM	128 µM	52.3 µg/mL	CCN(CC)Cc1cc(OC)c2c(c1)C(=O)c1cccc(OC)c1C2=O [IXa-1, 3-[(Diethylamino)methyl]-1,8-dimethoxy-9,10-anthraquinone]	6.3	
0.44 µM	2.5 µM	39 µM			O=C1c2cccc(O)c2C(=O)c2c(O)cc(C(Br)Br)cc21 [VIIIa, 3-(Dibromomethyl)-1,8-dihydroxy-9,10-anthraquinone]	15.6	
0.001 µM	0.19 µM	110 µM			COc1cc(O)c2c(c1)C(=O)c1cc(C(Br)Br)cc(O)c1C2=O [VIIIb, 6-(Dibromomethyl)-3-methoxy-1,8-dihydroxy-9,10-anthraquinone]	579	
0.89 µM	2.1 µM	9 µM			COc1cccc2c1C(=O)c1c(OC)cc(C(Br)Br)cc1C2=O [IVa, 3-Dibromomethyl-1,8-dimethoxy-9,10-anthraquinone]	4.3	
9.2 µM	4.4 µM	11 µM			COc1cccc2c1C(=O)c1c(OC)cc(CBr)cc1C2=O [IIIa, 3-bromomethyl-1,8-dimethoxy-9,10-anthraquinone]	2.5	
9.8 µM	17 µM	13 µM	3.67 µM	1.44 µg/mL	CCNCc1cc(OC)c2c(c1)C(=O)c1cc(OC)cc(OC)c1C2=O [IXb-5, 3-(N-ethylamino)methyl-1,6,8-trimethoxy-9,10-anthraquinone]	0.76	
4.6 µM	4.1 µM	25 µM			CCCCNCc1cc(O)c2c(c1)C(=O)c1cccc(O)c1C2=O [XIa-10]	6.1	
> 27 µM	100 µM	17 µM	27.7 µM	12.5 µg/mL	COc1cc(OC)c2c(c1)C(=O)c1cc(CN(CCO)CCO)cc(OC)c1C2=O [IXb-2, 3-[N,N-bis(2-hydroxethyl)amino]methyl-1,6,8-trimethoxy-9,10-anthraquinone]	0.17	IC50 ([1]; Mus musculus, L1210, Table II, antileukemic activity, read-out: L1210: ID50): > 27.6 µM
					COc1cc(OC)c2c(c1)C(=O)c1cc(CN(CCCl)CCCl)cc(OC)c1C2=O [IXb-3, 3-[N,N-bis(2-chloroethyl)amino]methyl-1,8,6-trimethoxy-9,10-anthraquinone]	4.5	ID50 ([1]; Table I): 1.30 µg/mL (≈ 2.87 µM); IC50 [1, 8]: 2.66 µM; IC50 [1, 7]: 2.7 µM; IC50 ([2]; 0.2% DMSO): 2 µM; IC50 [3]: 8.9 µM
140 µM	55 µM	46 µM	142 µM	53.7 µg/mL	COc1cccc2c1C(=O)c1c(OC)cc(CNCCO)cc1C2=O [IXa-6, 3-[N-(2-hydroxyethyl)amino]methyl-1,8-dimethoxy-9,10-anthraquinone]	0.84	
					3-(Dibromomethyl)-1(and 8)-hydroxy-8(and 1)-methoxy-9,10anthraquinone [VIIa]	217	IC50 [1, 7]: 4.2e-05 µM; IC50 ([2]; 0.2% DMSO): 0.06 µM; IC50 [3]: 13 µM
8.6 µM	7.1 µM	16 µM			O=C1c2cccc(O)c2C(=O)c2c(O)cc(CBr)cc21 [VIa, 3-bromomethyl-1,8-dihydroxy-9,10-anthraquinone]	2.3	
4 µM	2.8 µM	63 µM			O=C1c2cccc(O)c2C(=O)c2c(O)cc(CN3CCCCC3)cc21 [XIa-14]	22.5	
	7.9 µM	4.2 µM	6.91 µM	2.9 µg/mL	CCN(CC)Cc1cc(OC)c2c(c1)C(=O)c1cc(OC)cc(OC)c1C2=O [IXb-1, 3-(N,N-diethylamino)methyl-1,6,8-trimethoxy-9,10-anthraquinone]	0.53	
0.72 µM	2.1 µM	13 µM	0.44 µM	0.18 µg/mL	CCNCc1cc(O)c2c(c1)C(=O)c1cc(OC)cc(O)c1C2=O [XIb-5, 3-(N-ethylamino)methyl-1,8-dihydroxy-6-methoxy-9,10-anthraquinone]	6.2	
27 µM	27 µM	17 µM			CC(C)NC(=O)OCCN(CCOC(=O)NC(C)C)Cc1cc(O)c2c(c1)C(=O)c1cccc(O)c1C2=O [XIa-12]	0.63	
8.5 µM	11 µM	25 µM			NCc1cc(O)c2c(c1)C(=O)c1cccc(O)c1C2=O [XIa-8]	2.3	
17 µM	110 µM	26 µM	12.5 µM	5.1 µg/mL	COc1cc(OC)c2c(c1)C(=O)c1cc(CNCCO)cc(OC)c1C2=O [IXb-6, 3-[N-(2-hydroxyethyl)amino]methyl-1,6,8-trimethoxy-9,10-anthraquinone]	0.24	
			> 335 µM	> 100 µg/mL	Cc1cc(O)c2c(c1)C(=O)c1cc(O)cc(O)c1C2=O [IIb]		
> 18 µM	210 µM	28 µM			CNC(=O)OCCN(CCOC(=O)NC)Cc1cc(O)c2c(c1)C(=O)c1cccc(O)c1C2=O [XIa-4]	0.13	
					COc1cccc2c1C(=O)c1c(OC)cc(CN(CCCl)CCCl)cc1C2=O [IXa-3, 3-[N,N-bis(2-chloroethyl)amino]methyl-1,8-dimethoxy-9,10-anthraquinone]	7.8	ID50 ([1]; Table I): 5.73 µg/mL (≈ 13.6 µM); IC50 [1, 8]: 12.5 µM; IC50 [1, 7]: 13 µM; IC50 [3]: 14 µM

Compound	IC50 [1, 4]	IC50 ([2]; Homo sapiens, 0.2% DMSO)	IC50 ([3]; Homo sapiens, 0.5 h)	IC50 [1, 5]	IC50 [1, 6]	B/A [3]	further results
COc1cc(OC)c2c(c1)C(=O)c1cc(CNCCCl)cc(OC)c1C2=O [IXb-7, 3-[N-(2-chloroethyl)amino]methyl-1,6,8-trimethoxy-9,10-anthraquinone]			18 µM			3.1	IC50 ([1]; Mus musculus, L1210, 72 h, read-out: ID50, M (L1210 cell growth)): 3.2 µM; IC50 ([2]; Homo sapiens): 5.8 µM
COc1cc(OC)c2c(c1)C(=O)c1cc(C)cc(OC)c1C2=O [IIb, 1,3,8-Trimethoxy-6-methyl-9,10-anthraquinone]	100 µM	49 µM	21 µM				
Cc1cc(O)c2c(c1)C(=O)c1cccc(O)c1C2=O [IIa]				> 390 µM	> 100 µg/mL		

Reference: patent US5053431A, “Derivatives of chrysophanol as topoisomerase II inhibitors” (Sloan-Kettering Institute For Cancer Research, priority 1990, dated 1991)
